Results as given in US20090214580A1, “Peptide mixtures with immunomodulatory activity” (priority 2004, published 2009).

Experiments:
[1] = target: HLA-DR2 (Homo sapiens, UniProt P01903+P01911); conditions: cited from earlier work
[2] = system: PBMC from healthy donors and MS patients; experiment: T cell proliferation of PBMC, primary and secondary (3H-thymidine); format: cell-based, human; conditions: 20 μg/ml; healthy donor and MS patient PBMC; words
Protocol: FIG. 1: Peptide length and composition affect the stimulatory potential of complex mixtures (CM). The stimulatory capacity of CM ranging in size and composition were tested in PBMC from nine healthy donors in both primary (A,C) and secondary (B,D) proliferations to confirm the specificity of the response. 20 μg/ml of CM or GA were each added to 18 wells and the % of positive wells (those wells with CPM having an SI greater than twice that observed in background/control wells) determined from pooled data from all donors. Figures A and B analyze the contribution of peptide length and Figures C and D the composition or MHC-bias to stimulatory potential. […]
PBMC were isolated from leukocytaphereses and seeded in complete T cell medium (TCM; Iscove's modified Dulbecco's medium [IMDM] containing 2 mM 1-glutamine, 50 μg/ml gentamycin, penicillin-streptomycin 100 U/ml each, and 5% pooled human AB serum) at 2×10^5 cells/well into 96 well U-bottom microtiter plates (Nunc, Naperville, Ill.) and stimulated with CM and GA at 20 μg/ml. After 6 days, 100 μl samples of cell suspension were removed from these plates and transferred to a new microtiter plate to which 1 μCi/well of H^3-thymdidine (Amersham Pharmacia Biotech, Piscataway, N.J.) was added and after 16 hours harvested and counted in a scintillation counter (Microbeta, Wallac, Gatihersburg, Md.). […]

[3] = system: SJL mouse spleen cells; experiment: SJL mouse spleen primary proliferative responses to CM; format: cell-based; conditions: naive SJL spleen cells; 40, 10, 2.5 μg/ml; words
Protocol: FIG. 3: SJL mouse spleen primary proliferative responses to CM. Mouse splenic cells were seeded with 3 different doses of CM (40, 10 and 2.5 μg/ml) or GA to test for stimulatory potential of CM of (A) varying length or (B) differential anchor bias. 18 wells were seeded per antigen, and data from 2 experiments were pooled. % positive wells represents the proportion of wells with CPM at a SI greater than 2 compared to background/control wells.
(§1) 6-8 week old female SJL/J mice were purchased from Charles River Laboratories (Wilmington, Mass.). Spleen cells were isolated from anesthetized naïve SJL mice or 10 days after immunization with 200 μg of CM or GA in Complete Freund's Adjuvant (CFA—Difco Laboratories, Detroit, Mich.) on four spots on their back and subsequent aseptic spleen removal and red blood cell lysis using ACK lysis buffer from Biosource (Camarillo, Calif.). […] After six or three days in naïve or immunized mouse experiments respectively, 1 μCi ^3[H]-thymidine (Dupont, Wilmington, Del.) was added overnight and subsequently harvested and counted for thymidine incorporation on a Trilux liquid scintillation counter (Wallac, Gaithersburg, Md.).

[4] = system: spleen cells from immunized SJL mice; experiment: Spleen cells of CM- or GA-immunized SJL mice, response to immunizing antigen; format: cell-based, mouse; conditions: spleen cells ten days after immunization; words
Text: (§2) FIG. 4. Cross reactivity of CM-specific lines to MBP. SJL mice were immunized with CM or GA to enhance the number of CM-specific T cells to assess for cross-reactivity to MBP. Spleen cells were removed from mice ten days post immunization and set into culture (6 wells per condition) with the initial immunizing antigen or human MBP at the μg/ml concentrations shown on the X axes. *p<0.05 by Student's t test comparing proliferation in test wells to control wells without antigen.
as §1

[5] = system: whole human MBP; experiment: Spleen cells of CM- or GA-immunized SJL mice, cross reactivity to human MBP; format: cell-based, mouse; conditions: spleen cells ten days after immunization; words
Text: as §2, §1

[6] = system: PLP139-151-induced EAE; experiment: Prophylaxis in PLP139-151-induced EAE; format: in vivo, SJL mice
[7] = system: multiple sclerosis; conditions: MS patients; cited from earlier work
[8] = system: EAE; conditions: Lewis rats; cited from earlier work

For poly-YEAK, the “binding to DR2 molecules” value ([1]; compared with poly-YEA, -YEK and -YAK) is given as “better binders”.

In the case of Glatiramer acetate [GA], the “stimulatory potential (proliferative responses, % positive wells)” value [2] is reported as “most frequently observed”, the “stimulatory potential (primary proliferative responses)” value [3] is reported as “most frequently observed” and the “response to immunizing antigen (SI)” value [4] is reported as “very high SIs”. For the same substance, the “cross reactivity with whole human MBP” value [5] was “cross reacted”, the “Cumulative disease score (day 0-24)” value ([6]; 500 μg co-injected s.c. with 75 μg PLP 139-151, initial disease course, mean ± SEM) was 10.2 ± 1.6 and the “Cumulative disease score (day 24-45)” value ([6]; 500 μg co-injected s.c. with 75 μg PLP 139-151, remaining disease course, mean ± SEM) was 13.5 ± 3.0. For the same substance, the “prophylactic effect on the EAE disease course” value ([6]; single 500 μg dose with PLP 139-151) was “significantly reduce the overall disease score”, the “reduction of cumulative disease score throughout the relapse phase” value ([6]; single 500 μg dose with PLP 139-151, vs PLP alone) was “approximately one-third” and the “reduction of the relapse rate in MS” value [7] was “about 30%”. The “competition for binding of MBP (85-99) to HLA-DR2” value [1] was “effectively compete”.

For EYYKEYYKEYYK, the “effect on EAE” value [8] is given as “ameliorate EAE”.
